Measured values taken from publication PMC10254233, “Synthesis and In Vitro Biological Evaluation of p-Carborane-Based Di-tert-butylphenol Analogs” (Molecules, 2023).

How the values were obtained:
[1] = molecular target: T1, human recombinant COX-2 (Homo sapiens, UniProt P35354); test: COX Fluorescent Inhibitor Screening Assay, COX-2; type: biochemical; conditions: in duplicate
T1 construct: purchased Cayman Chemical Company
T1 sequence (P35354 18-604): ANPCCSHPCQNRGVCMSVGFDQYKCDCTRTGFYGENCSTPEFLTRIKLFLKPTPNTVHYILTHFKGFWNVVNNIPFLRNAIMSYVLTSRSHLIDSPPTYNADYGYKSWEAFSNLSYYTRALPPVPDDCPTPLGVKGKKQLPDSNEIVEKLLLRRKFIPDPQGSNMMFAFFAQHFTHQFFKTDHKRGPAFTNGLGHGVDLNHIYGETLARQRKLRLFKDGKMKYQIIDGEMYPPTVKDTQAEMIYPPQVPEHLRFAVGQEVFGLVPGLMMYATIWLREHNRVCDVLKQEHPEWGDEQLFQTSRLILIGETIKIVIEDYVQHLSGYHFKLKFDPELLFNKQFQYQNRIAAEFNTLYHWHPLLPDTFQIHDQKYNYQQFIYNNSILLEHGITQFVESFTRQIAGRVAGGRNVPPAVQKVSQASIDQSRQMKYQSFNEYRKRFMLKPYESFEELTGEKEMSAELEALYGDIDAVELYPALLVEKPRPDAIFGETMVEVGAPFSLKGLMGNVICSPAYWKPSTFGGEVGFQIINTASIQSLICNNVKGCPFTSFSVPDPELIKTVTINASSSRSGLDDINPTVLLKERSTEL
Experimental: COX inhibition activity against ovine COX-1 and human COX-2 was determined using the fluorescence-based COX assay COX Fluorescent Inhibitor Screening Assay Kit (Cayman Chemical Company, Ann Arbor, MI, USA) according to the manufacturer’s instructions as previously reported by us. All compounds were screened at a concentration of 100 µM in duplicate.

[2] = tested on: A375 melanoma; test: Cell viability, MTT assay, A375; type: cell-based, human; conditions: 72 h, mean ± SD
Experimental: (§1) Five human cell lines (A375 melanoma, A549 lung adenocarcinoma, HCT116 and HT29 colorectal carcinoma, MDA-MB-231 triple-negative breast adenocarcinoma) were used to study the antitumor effects of the di-tert-butylphenols and their respective carborane analogs. All selected cell lines were derived from inflammation-associated tumors.
(§2) After the incubation period, the supernatant was discarded from the wells, and the cells were washed two times with 200 µL of PBS. Next, MTT solution at a final concentration of 0.5 mg/mL was added and incubated at 37 °C until purple formazan crystals were formed (30 min to one hour). After incubation, the dye was discarded. In order to dissolve the formed formazan crystals DMSO was added, and the absorbance was measured at λmax = 540 nm, with the reference/background wavelength of 670 nm. All results are expressed as a percentage of the control value which was arbitrary set to 100%. After 72 h treatment, cells were washed with 200 µL of PBS and fixed with 4% paraformaldehyde (PFA) for 15 min at room temperature (RT). Next, cells were stained with 1% CV solution. After 20 min, cells were washed in tap water and dried on air. Dye was dissolved in 33% acetic acid and the absorbance was measured at λmax = 540 nm, with the reference/background wavelength of 670 nm. Results were expressed as a percentage of the control value which was arbitrary set to 100%.
(§3) 1. General methods, materials, and procedures
(§4) 1.1.1. Reagents and cells
(§5) Reagents and cells were obtained from following manufacturers: Capricorn Scientific GmbH (Hessen, Germany) – Culture medium RPMI-1640, Dulbecco's Modified Eagle Medium (DMEM), and fetal bovine serum (FBS). Serva (Heidelberg, Germany) – Paraformaldehyde (PFA). Sigma (St. Louis, MO, USA) – Ethylenediaminetetraacetic acid (EDTA), Dimethyl sulfoxide (DMSO), chloroquine, CV, Triton X-100, RNase, PI, PBS, 3-MA, CFSE, and fluorescent mounting medium. AppliChem (MO, USA) –MTT. Thermo Fisher Scientific (Waltham, MA, USA) – DHR. R&D Systems (Minneapolis, MN, USA) – ApoStat. BD (Pharmingen, San Diego, SAD) – Annexin V-FITC (AnnV). Biological Industries (Cromwell, CT, USA) – Penicillin Streptomycin solution. American Type Culture Collection (ATCC, Manassas, Virginia, USA) – Human lung carcinoma (A549), human breast adenocarcinoma (MDA-MB-231), human colorectal ade-nocarcinoma (HT-29), human colorectal carcinoma (HCT116) and human melanoma (A375).
(§6) Cell lines (A375, HCT116, HT-29 and MDA-MB-231) were cultivated in HEPES-buffered RPMI-1640 medium while A549 cell line was cultivated in Dulbecco's Modified Eagle Medium (DMEM) which were previously supplemented with 10% heat-inactivated FBS, penicillin (100 units/mL), and streptomycin (100 μg/mL). All cells were kept at 37 °C in a humidified atmosphere with 5% CO2. For viability determi-nation cells were seeded at following densities in 96-well plates: 4 x 10^3 cells/well (A375, HT-29 and MDA-MB-231), 5 x 10^3 cells/well (HCT116), and 3 x 10^3 cells/well (A549). […]
Afterwards, cells were washed with phosphate-buffered saline (PBS) and stained with AnnV (15 μg/mL) and PI (15 μg/mL). […]
PBS and analyzed using flow cytometry. HCT116 cells were stained with 1 µg/mL of AO solution for 15 min at 37 °C to detect the presence of autophagic cell death. Afterwards cells were washed with PBS, resuspended and analyzed by flow cytometry (CyFlow® Space Partec using the PartecFloMax® software

[3] = tested on: A549 lung adenocarcinoma; test: Cell viability, MTT assay, A549; type: cell-based, human; conditions: 72 h, mean ± SD
Experimental: as §1, §2, §3, §4, §5, §6
(§7) Afterwards, cells were washed with phosphate-buffered saline (PBS) and stained with AnnV (15 μg/mL) and PI (15 μg/mL). After 15 min incubation at room temperature (RT) protected from light the cells were resuspended in AnnV-binding buffer and analysed using flow cytom-etry. HCT116 cells were incubated with pan-caspase inhibitor Apostat for 30 min at 37 °C to determine whether detected apoptosis was mediated by caspase activation. Afterwards, cells were washed with PBS and analyzed using flow cytometry. HCT116 cells were stained with 1 µg/mL of AO solution for 15 min at 37 °C to detect the presence of autophagic cell death. Afterwards cells were washed with PBS, resuspended and analyzed by flow cytometry (CyFlow® Space Partec using the PartecFloMax® software

[4] = tested on: MDA-MB-231 triple-negative breast adenocarcinoma; test: Cell viability, MTT assay, MDA-MB-231; type: cell-based, human; conditions: 72 h, mean ± SD
Experimental: as §1, §2, §3, §4, §5, §6, §7

[5] = Lipophilicity logD7.4 by HPLC; conditions: pH 7.4, HPLC method

Row | IC50 [2] | IC50 [3] | IC50 [4] | logD7.4, HPLC [5] | Substance | % Inhibition at 100 µM COX-2 [1]
1 | 69.3 ± 1.7 µM | 177 ± 14.5 µM | – | 1.50 | (3E)-1-Hydroxy-12-(methylene-[1′-methoxypyrrolidine-2′-one])-1,12-dicarba-closo-dodecaborane(12) [Compound E-5110-Cb] | n.i. (n.i. = no inhibition (%inhibition below 5%))
2 | 106 ± 6.3 µM | 122 ± 10.4 µM | > 200 µM | 1.88 | (3E)-1-Hydroxy-12-(methylene-[2′-ethylisothiazolidine-1′,1′-dioxide])-1,12-dicarba-closo-dodecaborane(12) [Compound S-2474-Cb] | n.i. (n.i. = no inhibition (%inhibition below 5%))
3 | 83.3 ± 2.3 µM | 120 ± 7 µM | 120 ± 3.9 µM | 1.87 | (3E)-1-Hydroxy-12-(methylene-[dihydrofurane-2′(3H)-one])-1,12-dicarba-closo-dodecaborane(12) [KME-4-Cb] | n.i. (n.i. = no inhibition (%inhibition below 5%))

Row | Substance | IC50 [2] | IC50 [3] | IC50 [4] | logD7.4, HPLC [5] | % Inhibition at 100 µM COX-2 [1]
4 | 1-Hydroxy-12-(thiophen-2′-carbonyl)-1,12-dicarba-closo-dodecaborane(12) [Compound R-830-Cb] | 35.9 ± 0.8 µM | 66.5 ± 1.7 µM | 46.5 ± 0.1 µM | 2.37 | 6%
